The record followed here is PubChem BioAssay AID1996.

≈ marks a conversion by molar mass, not a printed value. Bounds are passed on as bounds.

The conditions of the data set: buffer; pH 7.4; 200.0 µM.
With `CCOC(=O)Cc1cnc(NC(=O)CSc2nc(N)cc(=O)[nH]2)s1`, the kinetic solubility (in general, solubility judged after dilution from a stock solution rather than from solid) was found to be 12.6 µg/mL (≈ 34.1 µM).

On to `CCc1ccc(-c2csc3nc[nH]c(=O)c23)cc1`, for which the solubility (kinetic) was found to be 12 µg/mL (≈ 46.8 µM).

On to `Cc1ccc(SCC(=O)NCC2CCCO2)cc1` (configuration not stated), for which the solubility (kinetic) is > 39.8 µg/mL.

For the compound `COc1ccc(C(=O)OCC(=O)c2ccc(CNC(C)=O)s2)cc1`, the solubility (kinetic) was > 52.1 µg/mL.

For the compound `CC(=O)NCCc1nc2cc(NC(=O)c3cccc([N+](=O)[O-])c3)ccc2n1C`, the kinetic solubility is 3.5 µg/mL (≈ 9.18 µM).

In turn, `CC(=O)Nc1ccc(S(=O)(=O)NC2CC2)cc1` displayed a kinetic solubility of 37.6 µg/mL (≈ 148 µM).

On to `CCOC(=O)c1cc(S(=O)(=O)N2CCC(C)CC2)cn1C`, for which the solubility (kinetic) came to 5.2 µg/mL (≈ 16.5 µM).

`O=C(NCc1ccco1)C1CC(c2ccc(Cl)c(Cl)c2)=NO1` (configuration not stated) showed a kinetic solubility of 1.4 µg/mL (≈ 4.13 µM).

The compound `COc1ccc(C(=O)N(Cc2ccccc2)c2cccc(C)c2)cc1` gave a solubility (kinetic) of 15.8 µg/mL (≈ 47.7 µM).

Consider `Cc1nc(NC(=O)CN2CCCCC2)sc1C(=O)N(C)C`, for which the kinetic solubility was > 46.6 µg/mL.

With `Cn1c(Cl)cnc1C(O)(c1ccccc1)c1ccccc1`, the solubility (kinetic) was 10.2 µg/mL (≈ 34.1 µM).

Turning to `C#CCn1c(-c2cccs2)nc2ccccc21`, the solubility (kinetic) was > 35.7 µg/mL.

On to `CC(C)(C)c1ccc(SCCc2cccnc2)cc1`, for which the solubility (kinetic) is < 0.6 µg/mL.

As for `COc1ccc(-n2c(=S)[nH]c3sc4c(c3c2=O)CCc2ccccc2-4)cc1`, the solubility (kinetic) was 1.4 µg/mL (≈ 3.57 µM).

Take `O=S(=O)(Nc1ccc(Br)cc1)N1CCOCC1`: the solubility (kinetic) is > 48.2 µg/mL.

Turning to `CCNC(=O)CC1C(=O)N(c2cccc(C)c2)C(=O)N1CCC(C)C` (configuration not stated), the solubility (kinetic) is > 51.8 µg/mL.

Take `CCC1(OC(=O)c2ccccc2)CC(C)N(C)CC1C.Cl` (configuration not stated): the kinetic solubility worked out at 30.3 µg/mL.

`Clc1cccc(Cl)c1C[n+]1cccc2ccccc21.[Br-]` yielded a kinetic solubility of 51.6 µg/mL.

Consider `Cc1cccc(NC(=O)c2c(-c3ccccc3)noc2C)n1`, for which the solubility (kinetic) is 34.9 µg/mL (≈ 119 µM).

Consider `COC(=O)N1c2ccccc2CCc2ccccc21`, for which the solubility (kinetic) came to 36.6 µg/mL (≈ 144 µM).

Take `CCCCCCCCN=Cc1c(O)[nH]c(=O)[nH]c1=O`: the kinetic solubility was determined as 1 µg/mL (≈ 3.74 µM).

As for `CCOc1ccccc1/C=C(\C(=O)O)c1ccc(S(=O)(=O)N2CCCCC2)s1`, the solubility (kinetic) is > 63.2 µg/mL.

Regarding `Cc1ccc(C(=O)c2nccn2C)cc1C`, the kinetic solubility was > 32.1 µg/mL.

`O=C(CCc1ccccc1F)N1CCN(c2ccccc2)CC1` returned a solubility (kinetic) of 41.6 µg/mL (≈ 133 µM).

`O=C(Cc1ccccc1F)NC1CCCc2ccccc21` (configuration not stated) registered a solubility (kinetic) of 16.7 µg/mL (≈ 58.9 µM).

The compound `CCCNC(=O)Nc1nc2ccccc2s1` showed a kinetic solubility of 34 µg/mL (≈ 144 µM).

Compound `Cc1nc(N)c(Br)c(C)c1Br` displayed a solubility (kinetic) of 6.2 µg/mL (≈ 22.1 µM).

With `CC(CNC(=O)CCc1ccccc1)NC(=O)CCc1ccccc1` (configuration not stated), the solubility (kinetic) is 19 µg/mL (≈ 56.1 µM).

Consider `COc1ccc(OC)c(S(=O)(=O)N2CCCC(C(=O)NCc3ccccn3)C2)c1` (configuration not stated), for which the kinetic solubility is > 62.9 µg/mL.

Compound `CCOc1ccc(-c2cnc3ccccc3n2)cc1` showed a solubility (kinetic) of 0.8 µg/mL (≈ 3.2 µM).

For `Cn1cnc([N+](=O)[O-])c1SCC(O)CCl` (configuration not stated), the solubility (kinetic) amounted to 36.5 µg/mL (≈ 145 µM).

`COc1ccc(-c2c(C)nn(-c3ccccc3)c2NC(C)=O)cc1OC`: the kinetic solubility was > 52.7 µg/mL.

With `C=CCNc1nc(NCc2ccccc2)nc(OCC)n1`, the kinetic solubility came to 36.6 µg/mL (≈ 128 µM).

`S=c1[nH]nc(C2(c3ccccc3)CCCC2)o1`: the kinetic solubility was > 36.9 µg/mL.

For the compound `N#Cc1cncc(C#Cc2ccccc2)c1`, the kinetic solubility was determined as 5.6 µg/mL (≈ 27.4 µM).

Regarding `COc1ccccc1NC(=O)NC1CCCCCCC1`, the kinetic solubility amounted to 2.7 µg/mL (≈ 9.77 µM).

Consider `Cc1ccc(C)n1-c1ccc(-c2ccnc(N)n2)cc1`, for which the solubility (kinetic) was determined as 22.5 µg/mL (≈ 85.1 µM).

The compound `COc1cccc(CNC(=O)COC(=O)/C=C/c2ccc(SC)cc2)c1` showed a solubility (kinetic) of 3.8 µg/mL (≈ 10.2 µM).

For `O=C(NCC1CCCO1)c1cc(Br)c(Br)s1` (configuration not stated), the kinetic solubility is > 55.4 µg/mL.

On to `O=C(CN1CCCCCC1)Nc1ccc(Cl)cn1`, for which the solubility (kinetic) was 35.3 µg/mL (≈ 132 µM).

For `NNC(=O)Cn1c(-c2ccccc2)cc2ccccc21`, the solubility (kinetic) was > 39.8 µg/mL.

`O=C(NC(=S)Nc1cccc([N+](=O)[O-])c1)C1CCCCC1`: the kinetic solubility is < 0.2 µg/mL.

For `CC(NC(=O)COC(=O)c1ccccc1F)C1CC2CCC1C2` (configuration not stated), the solubility (kinetic) is > 47.9 µg/mL.

Consider `Cn1cc(S(=O)(=O)NCC2CCCO2)c(=O)n(C)c1=O` (configuration not stated), for which the solubility (kinetic) was > 45.5 µg/mL.

On to `COCCCNC1=C(Cl)C(=O)c2ccccc2C1=O`, for which the solubility (kinetic) came out at 35.5 µg/mL (≈ 127 µM).

In the case of `CC(CCc1ccccc1)NS(=O)(=O)c1ccccc1Cl` (configuration not stated), the kinetic solubility came to 20 µg/mL (≈ 61.8 µM).

For the compound `Cc1ccc(NS(=O)(=O)c2cccc3cccnc23)c(Cl)c1`, the solubility (kinetic) stood at 1.1 µg/mL (≈ 3.31 µM).

On to `CC(CCc1ccccc1)NC(=O)Cc1cccs1` (configuration not stated), for which the kinetic solubility came out at 36 µg/mL (≈ 132 µM).

Turning to `CN(C)c1cc2c(cc1NS(=O)(=O)c1ccccc1)n(C)c(=O)n2C`, the solubility (kinetic) is 48 µg/mL (≈ 133 µM).

`CCOC(=O)CNC(=O)c1ccc(SCC)cc1`: the solubility (kinetic) is > 40.1 µg/mL.

`Cc1ccc2nc(-c3ccccc3NC(=O)CCC(=O)O)c(=O)[nH]c2c1`: the kinetic solubility is > 52.7 µg/mL.

In the case of `CC(=O)c1ccc(N2CCN(C(=O)c3ccc(S(=O)(=O)NCc4ccco4)cc3)CC2)cc1`, the solubility (kinetic) is 4.9 µg/mL (≈ 10.5 µM).
